Measured values: patent US20240148741A1, “FORMULATION FOR ORAL ADMINISTRATION, COMPRISING TRIAZINE DERIVATIVE” (priority 2021, published 2024)

Assay: Moisture sorption/desorption isotherm measurement (DVS)
Assay type: physicochemical
Conditions: for change in mass when the humidity was changed (DVS): 0% to 95% RH, 25° C.
Protocol: About 15 to 25 mg of a sample was weighed into a sample pan, and measurement was made. Measurement conditions are as follows. • Device: DVS Adventure manufactured by Surface Measurement Systems Ltd. • Measurement points: 0% to 95% RH every 5%, and 95% RH to 0% every 5% • Temperature: 25° C.
Regarding the comparison of the X-ray powder analysis patterns before and after the DVS measurement, measurement was performed by the following method.
• Measuring method: reflection method • Wavelength used: CuKα ray • Tube current: 200 mA • Tube voltage: 45 kV • Sampling plate: aluminum • X-ray incident angle: 2.5° • Sampling width: 0.02° • Detector: HyPix-3000 (two-dimensional detection mode)

With `Cn1cnc(Cn2c(=O)[nH]/c(=N\c3cc4cn(C)nc4cc3Cl)n(Cc3cc(F)c(F)cc3F)c2=O)n1` as the molecule, how does the “change in mass when the humidity was changed (DVS)” value (crystal of Example a (FIG. 6)) read?
The value was “No substantial change in mass”.

What about the “change in mass when the humidity was changed (DVS)” value (crystal of Step 5-2 of Example 1b (FIG. 18)) of the same molecule?
Its value is “No substantial change in mass”.

What about the “crystalline form before and after the DVS measurement (X-ray powder patterns)” value (crystal of Step 5-2 of Example 1b (FIG. 19)) of the same molecule?
Its value is “did not change”.
